Source: PubChem BioAssay (NCI)
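Compound exposure: 48 hours, 5 concentrations, 96-well plates. TGI denotes the concentration required for complete inhibition of growth.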

Key:
Assay in all cases: inhibition of tumour cell growth, NCI panel, 48 h
ACHN renal = system: ACHN renal
EKVX NSCLC = system: EKVX NSCLC
HCC-2998 colon = system: HCC-2998 colon
KM12 colon = system: KM12 colon
MDA-MB-435 = system: MDA-MB-435
SK-MEL-5 melanoma = system: SK-MEL-5 melanoma
SK-OV-3 ovarian = system: SK-OV-3 ovarian
SNB-19 CNS = system: SNB-19 CNS
SNB-75 CNS = system: SNB-75 CNS
UO-31 renal = system: UO-31 renal

SMILES | TGI (ACHN renal) | TGI (EKVX NSCLC) | TGI (HCC-2998 colon) | TGI (KM12 colon) | TGI (MDA-MB-435) | TGI (SK-MEL-5 melanoma) | TGI (SK-OV-3 ovarian) | TGI (SNB-19 CNS) | TGI (SNB-75 CNS) | TGI (UO-31 renal)
Cn1c(=O)cc(NCc2ccc(Cl)cc2)[nH]c1=O | > 100 µM | > 100 µM | > 100 µM | > 100 µM | > 100 µM | > 100 µM | > 100 µM | > 100 µM | 84.5 µM | > 100 µM
CC1=C2c3c(C)ccc4ccc(C)c(c34)C2(O)C(C)C1=O (stereo unspecified) | > 100 µM | > 100 µM | > 100 µM | > 100 µM | > 100 µM | > 100 µM | > 100 µM | > 100 µM | > 100 µM | > 100 µM
COc1cc(-c2oc3c(OC)c(O)c(OC)c(O)c3c(=O)c2OC)cc(O)c1OC | > 100 µM | > 100 µM | > 100 µM | > 100 µM | 77.6 µM | 55.6 µM | 49.3 µM | > 100 µM | 42 µM | > 100 µM
COc1ccc(/C=C2\C[C@H]3[C@@H]4CCC5=C[C@@H](N6CCCC6)CC[C@]5(C)[C@H]4CC[C@]3(C)[C@H]2O)cc1 | 11.7 µM | 17 µM | 3.27 µM | 8.02 µM | 4.47 µM | 2.91 µM | 14.8 µM | 16.1 µM | 14.5 µM | 3.26 µM
CC(C)(C)N(Cc1ccc2c(c1)OCO2)C(=O)/C=C\S(=O)c1ccccc1 (stereo unspecified) | 15.2 µM | 20.9 µM | 13.8 µM | 14 µM | 9.74 µM | 12.9 µM | 9.38 µM | 20.7 µM | 15.1 µM | 7.93 µM
CC1(c2nc3cc(Cl)c(Cl)cc3[nH]2)CCC(CO)C(C)(C)O1 (stereo unspecified) | > 100 µM | 87 µM | > 100 µM | 38.6 µM | > 100 µM | 27.1 µM | > 100 µM | > 100 µM | 66.9 µM | 39.9 µM
N#CCCN(CCC#N)c1ccc(C(N=Nc2ccccc2)=Nc2ccccc2)cc1 | > 100 µM | > 100 µM | > 100 µM | > 100 µM | > 100 µM | > 100 µM | > 100 µM | > 100 µM | > 100 µM | > 100 µM
Cc1ccc(-c2c(C#N)c(S)n(NS(=O)(=O)c3ccc(C)cc3)c(=O)c2C#N)cc1 | 49.8 µM | > 100 µM | 46.9 µM | 35.2 µM | 52.8 µM | 49.2 µM | > 100 µM | 52.1 µM | 37.4 µM | 38.5 µM
CC1=C2C(=O)[C@H]3[C@@H](CC=C4C[C@@H](O)CC[C@@]43C)[C@@H]2CC[C@]12O[C@@H]1C[C@H](C)CN[C@H]1[C@H]2C | > 56.3 µM | > 66.7 µM | > 82.8 µM | > 83.4 µM | > 100 µM | > 61.9 µM | > 57.3 µM | > 57.6 µM | > 54.4 µM | > 54.3 µM
COc1ccc(N=C(C)c2ccncc2)cc1 | > 100 µM | > 100 µM | > 100 µM | > 100 µM | > 100 µM | > 100 µM | > 100 µM | > 100 µM | > 100 µM | > 100 µM
COc1ccc2nc3cccc([N+](=O)[O-])c3c(NCCO)c2c1 | 0.0504 µM | 0.0648 µM | 0.0395 µM | 0.149 µM | 0.0186 µM | 0.0614 µM | 0.752 µM | 0.875 µM | 0.336 µM | 0.0504 µM
CCCCCCOc1ccc(C(=O)NOCc2ccccc2)cc1 | > 100 µM | > 100 µM | > 100 µM | > 100 µM | > 100 µM | > 100 µM | > 100 µM | > 100 µM | > 100 µM | > 100 µM
O=[N+]([O-])c1ccc(C2=NOC(c3ccccc3F)N2C23CC4CC(CC(C4)C2)C3)cc1 (stereo unspecified) | > 100 µM | > 100 µM | > 100 µM | > 100 µM | > 100 µM | > 100 µM | > 100 µM |  | > 100 µM | > 100 µM
CC1(C)C(=O)C(C)(C)C12SSC1(S2)C(C)(C)C(=O)C1(C)C | > 100 µM | > 100 µM | > 100 µM | > 100 µM | > 100 µM | > 100 µM | > 100 µM | > 100 µM | > 100 µM | > 100 µM
CC(C)NC(=O)CN1CCN(C2=CC(=O)c3c(O)ccc(O)c3C2=O)CC1 | 54.1 µM | 33.6 µM | 30.4 µM | 33.2 µM | 3.76 µM | 7.78 µM | 77.1 µM | 37.2 µM | 32.6 µM | 33.2 µM
O=C(CC(=O)N1N=C(N2CCCCC2)CC1c1ccccc1)Nc1ccc(Cl)cc1 (stereo unspecified) | > 100 µM | > 100 µM | > 100 µM | > 100 µM | > 100 µM | > 100 µM |  | > 100 µM | > 100 µM | > 100 µM
OC12COc3ccccc3C1Oc1ccccc1C2 (stereo unspecified) | > 100 µM | > 100 µM | > 100 µM | > 100 µM | > 100 µM | > 100 µM | > 100 µM |  | > 100 µM | > 100 µM
O=c1cc(N2CCOCC2)[nH]c(=O)n1-c1cccc(C(F)(F)F)c1 | > 100 µM | > 100 µM | > 100 µM | > 100 µM | > 100 µM | > 100 µM | > 100 µM |  | > 100 µM | > 100 µM
COc1ccc(-c2csc(=Nc3ccccc3)n2CC(O)c2ccc([N+](=O)[O-])cc2)cc1 (stereo unspecified) | > 100 µM | > 100 µM | > 100 µM | > 100 µM | > 100 µM | > 100 µM | > 100 µM | > 100 µM | > 100 µM | > 100 µM
CN(C)CCNc1ccc2c(=O)n(CCN(C)C)c(=O)n3c4ccc([N+](=O)[O-])cc4c(=O)c1c23 | 3.83 µM | 2.83 µM | 2.27 µM | 4.95 µM | 1.83 µM | 2.23 µM | 6.72 µM | 4.51 µM | 1.26 µM | 4.06 µM
